# Patent publication US12533348B2, “Ferroportin-inhibitors for the use in the treatment of transfusion-dependent beta-thalassemia (TDT)” (Vifor (International) AG, priority 2019, dated 2026)
# Several values for one entry are separate records, joined by “and”; a condition that tells them apart may be missing. Equal values may be shown once.
# Experiments:
# [1] = Combination study: plasma concentrations of Fpn127 and DFX (LC-MS/MS); assay type: in vivo, mouse
# Experimental: On day 23 (study end) 1 hour after dosing blood was collected by retro-orbital bleeding from pre-terminally anesthetized mice into BD Microtainer Tubes (Cat. 365967 and 365975) for determination of serum iron, transferrin, erythropoietin and compound exposure. Anesthetized animals were subsequently euthanized by cervical dislocation.
# [formula] Serum EPO was measured using a mouse-specific DuoSet ELISA according to the manufacturer's instructions (R&D Systems, Cat. DY959). Plasma concentrations of Fpn127 and DFX were measured at GVK Biosciences, Hyderabad, IN. Flow Cytometric Analysis of Intracellular ROS, Mitochondria, and PS Exposure
# Plasma was collected 1 hour after dosing of DFX on day 23 for determination of compound concentration by LC-MS/MS. Plasma exposure of DFX was similar in animals dosed with DFX alone or in combination with Fpn127 (FIG. 11, Table 12). […] As expected, plasma levels of Fpn127 were low as plasma was sampled approximately 20 h after the last dose of Fpn127.
# [2] = system: Hbb^th3/+ mouse model of β-thalassemia intermedia; assay: Combination study: erythroid differentiation stages in spleen by flow cytometry (Ter119/CD44/CD71); assay type: in vivo
# Description: Distinct stages of erythroid cell differentiation in spleens of female mice were identified by flow cytometry (CANTOII cytometer, BD Biosciences) using PE-conjugated rat anti-mouse CD71 (transferrin receptor-1, eBioscience, Cat. 12-0711), APC-conjugated rat anti-mouse Ter119 (erythroid lineage marker, eBioscience, Cat. 17-5921) and APC-Cy7-conjugated rat anti-mouse CD44 (adhesion molecule that progressively decreases on the surface of developing erythroid cells, BioLegend. Cat. 103028) antibodies. Data were analyzed using FlowJo® software (FlowJo. LLC, version 10.1) Serum Parameters
# [3] = system: Hbb^th3/+ mouse model of β-thalassemia intermedia; assay: Combination study: serum iron (MULTIGENT Iron assay), transferrin ELISA and calculated TSAT; assay type: in vivo
# Experimental: […] Anesthetized animals were subsequently euthanized by cervical dislocation.
# Serum levels of iron were determined in triplicates using MULTIGENT Iron assay (Abbott Diagnostics, Cat. 6K95). Serum Transferrin (TO was measured in duplicates using a mouse-specific ELISA according to the manufacturer's instructions (Abcam, Cat. ab157724). Transferrin saturation (TSAT) was calculated using the formula: […]
# [4] = system: Hbb^th3/+ mouse model of β-thalassemia intermedia; assay: Combination study: hemoglobin (HemoCue photometer); assay type: in vivo; details: for Hb concentration: th3/+ mice, Fpn127 120 mg/kg QD p.o., mean
# Experimental: (§1) One day after switching to lid a blood sample was taken by tail vein incision to determine the baseline Hb levels. Hb was measured using a HaemoCue® device. Hb was also measured on days 8, 15, and 22 in the morning before dosing. The animals were dosed p.o. D with 30 mg/kg DFX in 30% Kolliphor, 120 mg/kg Fpn127 in 0.5% C, or both for a total of 17 doses during the 23 days of study. 30% Kolliphor and 0.5% C were dosed as vehicles. The dose of DFX was administered at the beginning of the dark cycle (active phase) at 9:00 followed by 3 h of access to lid. Then, mice were dosed with Fpn127 (or 0.5% C) and were given access to sd for a 6 h period before switched back to lid. On the dosing was paused and mi had access to lid ad libitum.
# Hb was measured on days 1, 8, 15 and 22. Individual Hb values were determined at the starting day of the experiment (day 1) and weekly thereafter during the experimental phase in the morning before the first daily dose. A blood sample was taken by tail vein incision and Hb was measured using a HemoCue® DM201 Hb photometer.
# [5] = system: Hbb^th3/+ mouse model of β-thalassemia intermedia; assay: Combination study: flow cytometric analysis of intracellular ROS, mitochondria and PS exposure in mature RBC; assay type: in vivo
# Experimental: In peripheral blood taken on day 22 by tail vein incision, ROS were detected with the indicator chloromethyl-2′,7′-dichlorodihydrofluorescein diacetate (CM-H2DCFDA, Invitrogen), the presence of mitochondria was detected with MitoTracker Deep Red FM (Invitrogen), and PS exposure was detected using the Annexin V Apoptosis Detection Kit (Invitrogen) in mature RBC labelled with Ter119 and CD71 antibodies.
# For all analysis, cells were analyzed on a CANTOII cytometer (BD Biosciences) and data were analyzed using FlowJo® software (FlowJo, LLC, version 10.2).
# [6] = Combination study DFX/Fpn127: clinical observations, mortality and body weight; assay type: in vivo, mouse; details: for BW: th3/+ mice, mean
# Experimental: as §1
# Animals and their cages were checked daily by the experimenter during the study on working days. During the experimental phase, animals were weighted minimum once per week and scored according to their clinical symptoms: BW, general behavior and activity, appearance of hair coat, eyes, and nose. Clinical observations were recorded when present on separate score sheets.
# BW was recorded once before the start of the experimental phase on day −1. During the experimental phase, individual BW were recorded 1 to 2 times per week to calculate the dosing volume and to monitor weight loss.
# [7] = system: Hbb^th3/+ mouse model of β-thalassemia intermedia; details: in vivo
# Experimental: The aim of this study was to test whether the concurrent use of the iron chelator DFX administered once daily (QD) alone at 30 mg/kg or in combination with Fpn127 administered QD at 120 mg/kg for 3 weeks is causing any therapeutic interactions in a mouse model of β-thalassemia intermedia (Hbb^th3/+; B6; 129P—b1tm1Unc-b2tm1Unc/J, Jackson Laboratories, Stock Number: 002683).
# Animals were euthanized 1 h after the last dose of DFX on study day 23 (dosing day 17).
# On the final study day (day 23), spleen, liver, and kidneys were collected and snap frozen in liquid nitrogen for further analysis, as outlined below. Wet weight of spleen, liver, and kidneys were recorded.
# Content of total Fe was determined in pieces of spleens, livers, and kidneys by ICP-OES in the Analytical Development group of Vifor (International) Ltd., St. Gallen.
# Individual wet weights of organs were recorded. Individual values of total Fe were measured in livers, spleens, and kidneys. Individual values of total Fe content and concentration were calculated. Mean±SD of total Fe concentration and content in livers, spleens, and kidneys was calculated for each group.
# [8] = percent of parent Ter119+ spleen cells, female th3/+ mice, DFX 30 mg/kg QD, Fpn127 120 mg/kg QD p.o., end of study, mean
# [9] = th3/+ mice, all animals, mature RBCs in whole blood at end of study (pre-terminally d22)
smiles,measurement,setting,value
O=C(NCc1ncccc1F)c1coc(CCNCCc2nc3ccccc3[nH]2)n1 [Fpn127],plasma levels of Fpn127,[1]; approximately 20 h after the last dose of Fpn127,low
same,"plasma exposure of Fpn127, in presence vs absence of DFX",[1]; day 23 (FIG. 11),comparable
same,Plasma exposure of Fpn127 at the end of the study (mean),"[1]; th3/+ mice, all animals, plasma collected on day 23, approximately 20 h after the last dose of Fpn127, LC-MS/MS",68 ng/mL
same,RBC percentage in spleen,[2]; Hbbth3/+ mice (FIG. 9),increased
same,percentage of immature erythroid cells in spleen,[2]; Hbbth3/+ mice (FIG. 9),markedly reduced
same,"basophilic erythroblasts, frequency of parent",[2]; [8],4.94%
same,"mature erythrocytes, frequency of parent",[2]; [8],53.52%
same,"orthochromatic erythroblasts, frequency of parent",[2]; [8],14.65%
same,"polychromatic erythroblasts, frequency of parent",[2]; [8],9.44%
same,"pro-erythroblasts, frequency of parent",[2]; [8],1.74%
same,effect on TSAT,"[3]; Hbbth3/+ mice, day 23 (FIG. 10)",significantly decreased
same,TSAT,"[3]; calculated from Tf and serum iron, th3/+ mice, day 23, 1 h after last DFX dose, approx. 20 h after last Fpn127 dose, all animals, mean",17.7%
same,effect on serum iron vs vehicle treated th3/+ and WT animals,"[3]; day 23, last Fpn127 dose given 20 h before (FIG. 10)",significantly reduced
same,serum iron,"[3]; th3/+ mice, day 23, 1 h after last DFX dose (30 mg/kg), approx. 20 h after last Fpn127 dose (120 mg/kg), all animals, mean",19.9 ± 3.3 µM and 19.9 µM
same,change of Hb levels compared to vehicle-treated mice,"[4]; Hbb^th3/+ mice, by the study end, Fpn127 120 mg/kg QD, DFX 30 mg/kg QD",13 g/L
same,Hb levels during the study duration,[4]; Hbbth3/+ animals (FIG. 6),increased with time
same,Hb concentration,"[4]; DFX 30 mg/kg QD, day 1 (before dosing), all animals",85 g/L
same,Hb concentration,"[4]; DFX 30 mg/kg QD, day 1 (before dosing), females",85 ± 4 g/L and 85 g/L
same,Hb concentration,"[4]; DFX 30 mg/kg QD, day 1 (before dosing), males",85 ± 6 g/L and 85 g/L
same,Hb concentration,"[4]; DFX 30 mg/kg QD, day 8, all animals",92 g/L
same,Hb concentration,"[4]; DFX 30 mg/kg QD, day 8, females",93 g/L
same,Hb concentration,"[4]; DFX 30 mg/kg QD, day 8, males",90 g/L
same,Hb concentration,"[4]; DFX 30 mg/kg QD, day 15, all animals",96 g/L
same,Hb concentration,"[4]; DFX 30 mg/kg QD, day 15, females",99 g/L
same,Hb concentration,"[4]; DFX 30 mg/kg QD, day 15, males",93 g/L
same,Hb concentration,"[4]; DFX 30 mg/kg QD, day 22, all animals",98 g/L
same,Hb concentration,"[4]; DFX 30 mg/kg QD, day 22, females",101 g/L
same,Hb concentration,"[4]; DFX 30 mg/kg QD, day 22, males",95 g/L
same,proportion of PS-positive RBC (annexin V staining),[5]; Hbbth3/+ mice (FIG. 12),significantly decreased
same,"RBC function/quality (oxidative stress, apoptosis and maturation)","[5]; Hbbth3/+ mice, summary",improved RBC quality
same,proportion of ROS-producing RBC,"[5]; compared to Hbbth3/+ mice treated with vehicle or DFX alone, CM-H2DCFDA (FIG. 12)",significantly decreased
same,RBC containing mitochondria,[5]; compared to vehicle-treated and DFX-treated Hbbth3/+ mice (FIG. 12),less RBC containing mitochondria
same,% Annex in V-positive RBCs (mean),[5]; [9],0.29%
same,% Mito Tracker-positive RBCs (mean),[5]; [9],0.19%
same,% ROS-positive RBCs (mean),[5]; [9],32.82%
same,tolerability / clinical symptoms,"[6]; Hbb^th3/+ mice, DFX 30 mg/kg QD, Fpn127 120 mg/kg QD p.o., 17 doses in 23 days",generally well tolerated
same,effect on BW vs vehicle-treated Hbb^th3/+ mice or WT mice,"[6]; males and females, once daily for the duration of the study (d22)",no effect on BW
same,BW,"[6]; DFX 30 mg/kg QD, Fpn127 120 mg/kg QD p.o., day 1, all animals",22.2 g
same,BW,"[6]; DFX 30 mg/kg QD, Fpn127 120 mg/kg QD p.o., day 1, females",19.4 ± 1.0 g and 19.4 g
same,BW,"[6]; DFX 30 mg/kg QD, Fpn127 120 mg/kg QD p.o., day 1, males",25.1 ± 1.0 g and 25.1 g
same,BW,"[6]; DFX 30 mg/kg QD, Fpn127 120 mg/kg QD p.o., day 3, all animals",23.6 g
same,BW,"[6]; DFX 30 mg/kg QD, Fpn127 120 mg/kg QD p.o., day 3, females",20.3 g
same,BW,"[6]; DFX 30 mg/kg QD, Fpn127 120 mg/kg QD p.o., day 3, males",26.9 g
same,BW,"[6]; DFX 30 mg/kg QD, Fpn127 120 mg/kg QD p.o., day 7, all animals",23.1 g
same,BW,"[6]; DFX 30 mg/kg QD, Fpn127 120 mg/kg QD p.o., day 7, females",19.8 g
same,BW,"[6]; DFX 30 mg/kg QD, Fpn127 120 mg/kg QD p.o., day 7, males",26.5 g
same,BW,"[6]; DFX 30 mg/kg QD, Fpn127 120 mg/kg QD p.o., day 10, all animals",23.4 g
same,BW,"[6]; DFX 30 mg/kg QD, Fpn127 120 mg/kg QD p.o., day 10, females",20.3 g
same,BW,"[6]; DFX 30 mg/kg QD, Fpn127 120 mg/kg QD p.o., day 10, males",26.5 g
same,BW,"[6]; DFX 30 mg/kg QD, Fpn127 120 mg/kg QD p.o., day 14, all animals",23.3 g
same,BW,"[6]; DFX 30 mg/kg QD, Fpn127 120 mg/kg QD p.o., day 14, females",20.2 g
same,BW,"[6]; DFX 30 mg/kg QD, Fpn127 120 mg/kg QD p.o., day 14, males",26.3 g
same,BW,"[6]; DFX 30 mg/kg QD, Fpn127 120 mg/kg QD p.o., day 17, all animals",23.2 g
same,BW,"[6]; DFX 30 mg/kg QD, Fpn127 120 mg/kg QD p.o., day 17, females",19.7 g
same,BW,"[6]; DFX 30 mg/kg QD, Fpn127 120 mg/kg QD p.o., day 17, males",26.6 g
same,BW,"[6]; DFX 30 mg/kg QD, Fpn127 120 mg/kg QD p.o., day 22, all animals",23.3 g
same,BW,"[6]; DFX 30 mg/kg QD, Fpn127 120 mg/kg QD p.o., day 22, females",19.8 g
same,BW,"[6]; DFX 30 mg/kg QD, Fpn127 120 mg/kg QD p.o., day 22, males",26.7 g
same,effect on kidney weight vs vehicle-treated Hbbth3/+ mice,[7],no effect on kidney weight
same,effect on liver weight vs vehicle-treated Hbbth3/+ mice,[7],no effect on liver weight
